From patent publication US20100009907A1, “Glucagon-Like Peptides and Uses Thereof” (AMYLIN PHARMACEUTICALS, INC., priority 2006, published 2010) come the findings set out here.

Experiment [1] has as its target T1, RINm5f cells expressing endogenous GLP-1, calcitonin, and GIP receptors (Rattus norvegicus, UniProt P32301).
T1 construct: RINm5f cells expressing endogenous GLP-1, calcitonin, and GIP receptors; endogenous in cells; host or cells: RINm5f cells
T1 sequence (P32301 22-463): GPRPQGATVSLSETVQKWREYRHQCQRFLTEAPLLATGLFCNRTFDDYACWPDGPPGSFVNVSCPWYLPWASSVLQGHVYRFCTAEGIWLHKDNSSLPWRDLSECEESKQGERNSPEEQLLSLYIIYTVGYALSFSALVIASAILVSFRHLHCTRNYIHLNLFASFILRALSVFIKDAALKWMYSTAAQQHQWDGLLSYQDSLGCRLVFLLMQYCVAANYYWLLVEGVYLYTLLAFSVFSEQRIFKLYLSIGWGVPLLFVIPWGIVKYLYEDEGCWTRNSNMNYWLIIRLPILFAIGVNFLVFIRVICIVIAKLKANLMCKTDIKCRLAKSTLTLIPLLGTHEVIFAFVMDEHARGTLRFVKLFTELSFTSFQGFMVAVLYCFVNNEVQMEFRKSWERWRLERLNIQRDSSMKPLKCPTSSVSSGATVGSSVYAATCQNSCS
The experiment in a line: GLP/GIP/CT cAMP (RIN) assay. It counts as cell-based. As to the method: In addition, receptor binding can be measured using cells prepared from confluent cultures of RINm5f cells expressing endogenous GLP-1, calcitonin, and GIP receptors. Cells, and peptide or buffer solution are combined in 384-well plates. After a 30-minute incubation at room temperature in air, cAMP content is measured as recommended in the Perkin-Elmer AlphaScreen kit instructions.
Cells, and peptide or buffer solutions are combined in 384-well plates and incubated at room temperature in air for 30-minutes. cAMP content can then be measured according to recommendations in the Perkin-Elmer AlphaScreen™ kit instructions using the Perkin Elmer Fusion fluorimeter and data are analyzed using XLfit software (IDBS).

Experiment [2] deals with T2, GLP-1 receptor (RINm5F cell membranes) (Rattus norvegicus, UniProt P32301).
T2 construct: RINm5F insulinoma cells expressing endogenous GLP-1 receptors; endogenous in cells; host or cells: RINm5F cell membranes
T2 sequence (P32301 22-463): T1 sequence (P32301 22-463)
The experiment can be described thus: GLP-1 receptor binding assay (GLP RBA), [125I]GLP-1 displacement. To be noted: [125I]GLP-1 tracer. As to the method:
Reaction mixtures are filtered through glass filter pads presoaked with 0.3% PEI solution and rinsed with ice-cold phosphate buffered saline. Bound counts are determined using a scintillation counter. Binding affinities are calculated using GraphPad Prism software (GraphPad Software, Inc., San Diego, Calif.).

Experiment [3] addresses T3, GLP-1 receptor (endogenous, RINm5F cell membranes; rat thyroid carcinoma 6-23 clone 6 cells) (rat, UniProt P32301 22-463).
T3 sequence (looked up): T1 sequence (P32301 22-463)
The experiment in a line: cell-based or functional assay.

The target in experiment [4] is T3, GLP-1 receptor (endogenous, RINm5F cell …). The experiment can be described thus: displacement of [125I]GLP-1 from RINm5F cell membranes (GLP RBA). The method, then: GLP-1 receptor binding activity and affinity can be measured using a binding displacement assay in which the receptor source is RINm5F cell membranes, and the ligand is [¹²⁵I]GLP-1. Homogenized RINm5F cell membranes are incubated in 20 mM HEPES buffer with 40,000 cpm [¹²⁵I]GLP-1 tracer, and varying concentrations of test compound for 60 minutes at 23° C. with constant mixing. Reaction mixtures are filtered through glass filter pads presoaked with 0.3% PEI solution and rinsed with ice-cold phosphate buffered saline. Bound counts are determined using a scintillation counter. Binding affinities are calculated using GraphPad Prism software (GraphPad Software, Inc., San Diego, Calif.).

Positions count from the first letter of the chain named. Where no end group is shown, it is not given here.

Turning to “HADGTYTSDVSSYLQDQAAKDFITWLKSGQPKPDAVETRSVDTL-NH2 [compound 49]”, the “GLP/GIP/CT cAMP(RIN) EC50” value in experiment [1] came out at 415 nM.

“HAEGTFTNDMTNYLEEKAAKEFVGWLIKGRS-NH2 (C-terminus assumed) [compound 6]”: in experiment [2], the IC50 was 1 nM. Also, the “GLP/GIP/CT cAMP(RIN) EC50” value in experiment [1] turned out to be 1.23 nM.

In experiment [2], `CC[C@H](C)[C@H](NC(=O)[C@H](CC(C)C)NC(=O)[C@H](Cc1c[nH]c2ccccc12)NC(=O)[C@H](CC(=O)O)NC(=O)[C@@H](NC(=O)[C@H](Cc1ccccc1)NC(=O)[C@H](CCC(=O)O)NC(=O)[C@H](CCCCN)NC(=O)[C@H](C)NC(=O)[C@H](C)NC(=O)[C@H](CCCCN)NC(=O)[C@H](CCC(=O)O)NC(=O)[C@H](CC(=O)O)NC(=O)[C@H](CC(C)C)NC(=O)[C@H](CCC(N)=O)NC(=O)[C@H](CCC(N)=O)NC(=O)[C@@H](NC(=O)[C@@H](NC(=O)[C@H](CC(=O)O)NC(=O)[C@H](CO)NC(=O)[C@@H](NC(=O)[C@H](Cc1ccccc1)NC(=O)[C@@H](NC(=O)CNC(=O)[C@H](CCC(=O)O)NC(=O)[C@H](C)NC(=O)[C@@H](N)Cc1c[nH]cn1)[C@@H](C)O)[C@@H](C)O)C(C)C)[C@@H](C)O)[C@@H](C)CC)C(=O)N[C@@H](CC(N)=O)C(N)=O` [compound 7] registered an IC50 of 3 nM. Besides, the “GLP/GIP/CT cAMP(RIN) EC50” value in experiment [1] turned out to be 4.7 nM.

For “HAEGTYTNDVTEYLEEKAAKEFIEWLIN-NH2 (C-terminus assumed) [compound 24]”, in experiment [1], the “GLP/GIP/CT cAMP(RIN) EC50” value came to 0.85 nM.

For “HAEGTFTSDVTQQLDEKAAKEFIDWLINGGASKEIIS-NH2 (C-terminus assumed) [compound 12]”, the “GLP/GIP/CT cAMP(RIN) EC50” value in experiment [1] amounted to 0.29 nM.

For the molecule “HAEGTYTNDVTEYLEEKAAKEFIEWLIK-NH2 (C-terminus assumed) [compound 25]”, in experiment [1], the “GLP/GIP/CT cAMP(RIN) EC50” value amounted to 0.53 nM.

The molecule “HAEGTYTNDVTEYLEEKAAKEFIEWLIKGPKKIRYS-NH2 (C-terminus assumed) [compound 36]” came in with an IC50 in experiment [2] of 0.36 nM.

For the molecule “HAEGTYTNDVTEYLEEKAAKFIEWLIKGKPKKIRYS-NH2 (C-terminus assumed) [compound 31]”, the IC50 in experiment [2] worked out at 19 nM.

In the case of “HADGTFTNDMTSYLDAKAARDFVSWLARSDKS-NH2 [compound 52]”, the “GLP/GIP/CT cAMP(RIN) EC50” value in experiment [1] amounted to 382 nM.

In experiment [2], “HADGTYTSDVSSYLQDQAAKDFITWLKSGQPKPDAVET-NH2 [compound 48]” showed a 50% inhibitory concentration (IC50) of 34 nM. In addition, the “GLP/GIP/CT cAMP(RIN) EC50” value in experiment [1] was determined as 14 nM.

Regarding “HGEGTYTNDVTQFLEEKAAKEFIDWLIKGKPKKQRLS-NH2 (C-terminus assumed) [compound 55]”, in experiment [1], the “GLP/GIP/CT cAMP(RIN) EC50” value turned out to be 0.576 nM.

Take `CC[C@H](C)[C@H](NC(=O)[C@H](CC(C)C)NC(=O)[C@H](Cc1c[nH]c2ccccc12)NC(=O)[C@H](CCC(=O)O)NC(=O)[C@@H](NC(=O)[C@H](Cc1ccccc1)NC(=O)[C@H](CCC(=O)O)NC(=O)[C@H](CCCCN)NC(=O)[C@H](C)NC(=O)[C@H](C)NC(=O)[C@H](CCCCN)NC(=O)[C@H](CCC(=O)O)NC(=O)[C@H](CCC(=O)O)NC(=O)[C@H](CC(C)C)NC(=O)[C@H](Cc1ccc(O)cc1)NC(=O)[C@H](CCC(=O)O)NC(=O)[C@@H](NC(=O)[C@@H](NC(=O)[C@H](CC(=O)O)NC(=O)[C@H](CC(N)=O)NC(=O)[C@@H](NC(=O)[C@H](Cc1ccc(O)cc1)NC(=O)[C@@H](NC(=O)CNC(=O)[C@H](CCC(=O)O)NC(=O)[C@H](C)NC(=O)[C@@H](N)Cc1c[nH]cn1)[C@@H](C)O)[C@@H](C)O)C(C)C)[C@@H](C)O)[C@@H](C)CC)C(=O)N[C@@H](CCCCN)C(=O)NCC(=O)N[C@@H](CCCCN)C(=O)N1CCC[C@H]1C(=O)N[C@@H](CCCCN)C(=O)N[C@@H](CCCCN)C(=O)N[C@H](C(=O)N[C@@H](CCCNC(=N)N)C(=O)N[C@@H](Cc1ccc(O)cc1)C(=O)N[C@@H](CO)C(N)=O)[C@@H](C)CC` [compound 2]: in experiment [2], the IC50 is 0.1 nM. Further, the “GLP/GIP/CT cAMP(RIN) EC50” value in experiment [1] was found to be 0.36 nM.

For the molecule “HGEGTYTNDVTEYLEEKAAKEFIEWLIKGKPKKIRYS-NH2 (C-terminus assumed) [compound 26]”, the IC50 in experiment [2] worked out at 0.11 nM. For the same molecule, in experiment [1], the “GLP/GIP/CT cAMP(RIN) EC50” value came out at 0.967 nM.

In experiment [2], “HAEGTFTSDVTQQLDEKAAKEFIDALINGGPSKEIIS-NH2 (C-terminus assumed) [compound 13]” showed an IC50 of 74 nM. The “GLP/GIP/CT cAMP(RIN) EC50” value in experiment [1] turned out to be 196 nM.

“HAEGTFTSDVTQQLDEKAAKEFIDWLINPGSEGIKSI-NH2 (C-terminus assumed) [compound 14]” gave an IC50 in experiment [2] of 18 nM. In addition, in experiment [1], the “GLP/GIP/CT cAMP(RIN) EC50” value is reported as 18 nM.

As for “YADAPYISDVYSYLQDQVAKKWLKSGQD-NH2 [compound 51]”, the “GLP/GIP/CT cAMP(RIN) EC50” value in experiment [1] was found to be 971 nM.

On to `CC[C@H](C)[C@H](NC(=O)[C@H](CC(C)C)NC(=O)[C@H](Cc1c[nH]c2ccccc12)NC(=O)[C@H](CC(=O)O)NC(=O)[C@@H](NC(=O)[C@H](Cc1ccccc1)NC(=O)[C@H](CCC(=O)O)NC(=O)[C@H](CCCCN)NC(=O)[C@H](C)NC(=O)[C@H](C)NC(=O)[C@H](CCCCN)NC(=O)[C@H](CCC(=O)O)NC(=O)[C@H](CC(=O)O)NC(=O)[C@H](CC(C)C)NC(=O)[C@H](CCC(N)=O)NC(=O)[C@H](CCC(N)=O)NC(=O)[C@@H](NC(=O)[C@@H](NC(=O)[C@H](CC(=O)O)NC(=O)[C@H](CO)NC(=O)[C@@H](NC(=O)[C@H](Cc1ccccc1)NC(=O)[C@@H](NC(=O)CNC(=O)[C@H](CCC(=O)O)NC(=O)[C@H](C)NC(=O)[C@@H](N)Cc1c[nH]cn1)[C@@H](C)O)[C@@H](C)O)C(C)C)[C@@H](C)O)[C@@H](C)CC)C(=O)N[C@@H](CC(N)=O)C(=O)NCC(=O)NCC(=O)N1CCC[C@H]1C(=O)N[C@@H](CO)C(=O)N[C@@H](CCCCN)C(=O)N[C@@H](CCC(=O)O)C(=O)N[C@H](C(=O)N[C@H](C(=O)N[C@@H](CO)C(N)=O)[C@@H](C)CC)[C@@H](C)CC` [compound 11], for which the “GLP/GIP/CT cAMP(RIN) EC50” value in experiment [1] turned out to be 0.59 nM.

For the molecule “HAEGTFTSDVTQQLEEKAAKEFIEWLIKGKPKKIRYS-NH2 (C-terminus assumed) [compound 22]”, the “GLP/GIP/CT cAMP(RIN) EC50” value in experiment [1] was 0.1 nM.

“HAEGTYTNDVTEYLEEKAAKEFIEWLINGGPSKEIIS-NH2 (C-terminus assumed) [compound 21]”: the “GLP/GIP/CT cAMP(RIN) EC50” value in experiment [1] amounted to 1 nM.

“HAEGTYTNDVTEYLEEKAAKEFIEWLIGKPKKIRYS-NH2 (C-terminus assumed) [compound 35]” gave a half-maximal inhibitory concentration (IC50) in experiment [2] of 0.28 nM.

Molecule “HAEGTYTNDVTEYLEEKAAKEFIEWLIPKKIRYS-NH2 (C-terminus assumed) [compound 32]” showed an IC50 in experiment [2] of 22 nM.

For “HAEGTFTSDVTQQLDEKAAKEFIDWLINGGPSSGAPPPS-NH2 (C-terminus assumed) [compound 9]”, the “GLP/GIP/CT cAMP(RIN) EC50” value in experiment [1] is given as 0.28 nM.

B1: SEQ ID NO 34 (peptide)
peptide: HAEGTYTNDVTEYLEEKAAKEFIEWLIKGKPKKIRY
notes: also called nmGLP-1 analog
Regarding B1, in experiment [3], the “GLP-1 cAMP (6-23) EC50” value was 0.095 nM. This molecule also gave a half-maximal inhibitory concentration (IC50) in experiment [4] of 15 nM.

B2: SEQ ID NO 33 (peptide)
peptide: HAEGTYTNDVTELEEKAAKEFIEWLIKGKPKKIRYS
notes: also called nmGLP-1 analog
B2: the “GLP-1 cAMP (6-23) EC50” value in experiment [3] is 145 nM. Moreover, the IC50 in experiment [4] is 81 nM.

B3: SEQ ID NO 41 (peptide)
peptide: B2 peptide with E12Y
notes: also called nmGLP-1 analog
For the molecule B3, the “GLP-1 cAMP (6-23) EC50” value in experiment [3] was determined as 220 nM. In experiment [4], this molecule returned an IC50 of 9 nM.

B4: SEQ ID NO 39 (peptide)
peptide: B2 peptide with V10T, T11E, E12Y
notes: also called nmGLP-1 analog
As to B4, the “GLP-1 cAMP (6-23) EC50” value in experiment [3] was more than 1000 nM. The molecule also displayed an IC50 in experiment [4] of 61 nM.
